Results taken from PubChem BioAssay (NCI).
Values joined by “and” are separate entries in the source; they are usually repeats but may differ in a detail not shown here. Equal values may be shown once.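 Cells were grown in 96-well plates and exposed to each compound for 48 hours at five concentrations; endpoints were interpolated linearly between bracketing concentrations, or set to the highest concentration if not reached. GI50 is the concentration that inhibits growth by half. TGI: concentration producing complete growth inhibition.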

Experiments:
Experiment in all cases: growth of human tumour cells (NCI), 48 h
EKVX NSCLC = system: EKVX NSCLC
HL-60(TB) leukemia = system: HL-60(TB) leukemia
IGROV1 ovarian = system: IGROV1 ovarian
SF-295 CNS = system: SF-295 CNS
SK-MEL-5 melanoma = system: SK-MEL-5 melanoma
A498 renal = system: A498 renal
UACC-257 melanoma = system: UACC-257 melanoma

| Compound | TGI (EKVX NSCLC) | TGI (HL-60(TB) leukemia) | TGI (IGROV1 ovarian) | TGI (SF-295 CNS) [µM] | TGI (SK-MEL-5 melanoma) [µM] | GI50 (A498 renal) | TGI (A498 renal) | GI50 (IGROV1 ovarian) | GI50 (SF-295 CNS) | GI50 (SK-MEL-5 melanoma) [µM] | GI50 (UACC-257 melanoma) [µM] | TGI (UACC-257 melanoma) | GI50 (EKVX NSCLC) | GI50 (HL-60(TB) leukemia) |
| --- | --- | --- | --- | --- | --- | --- | --- | --- | --- | --- | --- | --- | --- | --- |
| N#Cc1cc(C#N)c(Cl)nc1N | > 10 µM | > 10 µM | > 10 µM | > 10 | > 10 | – | – | – | – | – | – | – | – | – |
| O=C(/C=C/c1ccc(B(O)O)cc1)/C=C/c1ccc(B(O)O)cc1 | – | – | 13.3 µM | 5.66 | 4.47 | 2.34 µM | 10.3 µM | 3.46 µM | 2.02 µM | 1.94 | 3.4 | 13.3 µM | – | – |
| CN1CCc2cc3c(cc2C1O)OCO3 (configuration not stated) | 36.8 µM and > 100 µM | 69.9 µM and > 100 µM | 33.2 µM and > 100 µM | > 100 | – | 22.9 µM and > 100 µM | 39.9 µM and > 100 µM | 10.7 µM and > 100 µM | 26.7 µM and > 100 µM | – | – | 10.8 µM and > 100 µM | 17.8 µM and > 100 µM | 28.8 µM and > 100 µM |
| CC(=O)N1CCN(C2=Nc3ccccc3CO2)C1=S | > 100 µM | > 100 µM | 58.1 µM | > 100 | 48.4 | – | – | 18.3 µM | 43.1 µM | 20.4 | > 100 | > 100 µM | 45.1 µM | 59.7 µM |
| Cc1cc(C)nc(NC(N)=NCCc2ccccc2)n1 | 89.9 µM | 12.4 µM | – | 5.44 | 5.39 | 5.26 µM | 39 µM | – | 1.64 µM | 1.75 | 2.64 | 39.4 µM | 3.66 µM | 2.9 µM |
| O=C(c1ccccc1)c1c(NCC(O)CN2CCCC2)n(Cc2ccccc2)c(=O)n(Cc2ccccc2)c1=O (configuration not stated) | 49.1 µM | – | 52.8 µM | 33.7 | 25 | 2.3 µM | 12.7 µM | 21.6 µM | 18 µM | 12.5 | 21 | 42.3 µM | 19.6 µM | – |
| CCSc1nnc2c(-c3ccccc3)n[nH]c2n1 | > 100 µM | > 100 µM | > 100 µM | > 100 | > 100 | – | – | – | – | – | – | > 100 µM | – | – |
| COc1cccc([C@H]2CC(=O)c3cc4c(cc3N2)OCO4)c1 | – | – | – | > 100 | 0.226 | 0.265 µM | > 100 µM | – | 0.0958 µM | 0.0271 | 0.0414 | > 100 µM | – | – |
| CC(C)=CCN=C(N)N | > 100 µM | > 100 µM | > 100 µM | > 100 | > 100 | – | – | – | – | – | – | > 100 µM | – | – |
| O=S(=O)(Nc1ncccn1)c1ccc(N=Nc2ccc(O)c3ncccc23)cc1 | – | 32.1 µM | 33 µM | 12 | 20.7 | 12.5 µM | 27.2 µM | 4.37 µM | 2.89 µM | 6.85 | 14.8 | 45.2 µM | – | 6.34 µM |
| CN1C(=O)c2c(ccc3c2OCO3)C2C(O)Cc3cc4c(cc3C21)OCO4 (configuration not stated) | 60.9 µM | 6.3 µM | 8.85 µM | 4.63 | > 100 | – | 9.29 µM | – | – | – | – | – | – | – |
| NS(=O)(=O)c1ccc(NC(=O)c2ccc(NC3=C(Cl)C(=O)N(Cc4ccccc4)C3=O)cc2)cc1 | > 100 µM | – | > 100 µM | 17.8 | 24.1 | 14.9 µM | 32.6 µM | 3 µM | 3.03 µM | 10.9 | 18.2 | 56.7 µM | 61.9 µM | – |
| COc1cc(-c2nn3c(/C=C4/C(=O)Nc5ccccc54)c(-c4ccc(C)cc4)nc3s2)cc(OC)c1OC | – | > 100 µM | > 100 µM | 31.1 | – | 7.28 µM | 36.7 µM | 4.75 µM | 5.04 µM | – | – | – | – | > 100 µM |
| COc1cc2c(/C=N\N=C(N)N)c(Cl)[nH]c2cc1C | 34.5 µM | – | 49.9 µM | 23.1 | 19 | 19.9 µM | 35 µM | 17.5 µM | 8.28 µM | 5.08 | 16.5 | 32.5 µM | 16.9 µM | – |
| C=C(CNC(=O)Nc1ccc(-c2ccccc2)cc1)c1ccc(C(=O)Nc2ccccc2N)cc1 | > 100 µM | > 100 µM | – | > 100 | > 100 | 37.4 µM | > 100 µM | – | > 100 µM | 94.3 | > 100 | > 100 µM | > 100 µM | 89.7 µM |
| COc1cc(/C(Cl)=C/C=C/C(=O)c2c(C)[n+]([O-])c3ccc(Cl)cc3[n+]2[O-])cc(OC)c1OC | > 50 µM | – | 13.2 µM | 20.5 | > 50 | 15.7 µM | > 50 µM | 3.78 µM | 2.77 µM | 9.44 | 16.6 | > 50 µM | 14.2 µM | – |
| COc1cc(C(=O)OCCCCCCCCCCC[P+](c2ccccc2)(c2ccccc2)c2ccccc2)ccc1O | – | 0.734 µM | – | – | – | 1.84 µM | 5.23 µM | – | – | – | 0.451 | 1.54 µM | – | 0.282 µM |
